Results published in US6436955B1, “Crystal modification A of 8-cyano-1-cyclopropyl-7-(is,6s-2,8-diazabicyclo[4.3.0]nonan-8-yl)-6-fluoro-1,4-dihydro-4-oxo-3-quinolinecarboxylic acid” (Bayer Aktiengesellschaft, priority 1998, dated 2002).

Test: Water absorption from the atmosphere at 95% relative atmospheric humidity
Format: physicochemical
Conditions: relative atmospheric humidity of 95% (saturated solution of Na2HPO4×12 H2O with sediment in water); within one day
Description: At a relative atmospheric humidity of 95% (established using a saturated solution of Na2HPO4×12 H2O with sediment in water), the solid obtained according to this procedure absorbs approximately 17% by weight of water within one day.
At a relative atmospheric humidity of 95% (established using a saturated solution of Na2HPO4×12 H2O with sediment in water), the solid obtained according to this procedure absorbs approximately 3% by weight of water within one day.

N#Cc1c(N2C[C@@H]3CCCN[C@@H]3C2)c(F)cc2c(=O)c(C(=O)O)cn(C3CC3)c12 [Comparative Example, 8-cyano-1-cyclopropyl-7-(1S,6S-2,8-diazabicyclo[4.3.0]nonan-8-yl)-6-fluoro-1,4-dihydro-4-oxo-3-quinolinecarboxylic acid]
water absorbed by the solid: approximately 17 % by weight

N#Cc1c(N2C[C@@H]3CCCN[C@@H]3C2)c(F)cc2c(=O)c(C(=O)O)cn(C3CC3)c12 [Example 1, 8-cyano-1-cyclopropyl-7-(1S,6S-2,8-diazabicyclo[4.3.0]nonan-8-yl)-6-fluoro-1,4-dihydro-4-oxo-3-quinolinecarboxylic acid]
water absorbed by the solid: approximately 3 % by weight
